From patent publication US10011616B2, “Boron-containing small molecules as antiprotozoal1 agents” (MMV MEDICINES FOR MALARIA VENTURE, priority 2015, dated 2018) come the findings set out here.

Assay [1] deals with W2 strain of Plasmodium falciparum. Description: In vitro activity against W2 strain of Plasmodium falciparum (YOYO-1 flow cytometry). The format is cell-based. To be noted: Erythrocyte, 48 h, P. falciparum W2 in human erythrocytes, 2 d, growth inhibition, read-out: IC50: 1 Org. Growth P. falciparum W2, 2 d (LPS_00451). The method, then: In Vitro Activity Against Plasmodium falciparum
b) Against W2 Strain of Plasmodium falciparum
W2 strain P. falciparum parasites were cultured in human erythrocytes and RPMI-1640 culture media with either 10% human serum or 0.5% Albumax serum substitute under 3% O2, 5% CO2, and 92% N2. Parasites synchronized to ring stage by treatments with 5% D-sorbitol were cultured with serial dilutions of benzoxaboroles from 5 to 10 mM stocks in 96 well microplate cultures including 200 μL of media/well, 2% hematocrit, and 1% parasitemia. At the completion of 48 h incubations, when untreated cultures contained new rings, parasites were fixed with 2% formaldehyde for 48 h, and 5 μL aliquots were transferred to another 96 well plate containing 150 μL/well of staining solution (100 mM NH4Cl, 0.1% Triton X-100, and 1 nM YOYO-1 in PBS). Parasites per erythrocyte were then determined by flow cytometry from plots of forward scatter against fluorescence (excitation 488 nm, emission 520 nm) using a FacSort flow cytometer (Beckton Dickinson) equipped with an AMS Loader (Cytek Development). All values were normalized to percent control activity, and IC50s were calculated using the Prism 3.0 program (GRAPHPAD Software). Goodness of fit was assessed by R^2 values, and meaningful dose-response curves yielded R^2 values >0.95.
A general note: A flow cytometer gives signals particle by particle.

Assay [2] relates to 3D7 strain of Plasmodium falciparum. Briefly: In vitro activity against 3D7 strain of Plasmodium falciparum ([3H]-hypoxanthine incorporation assay). Format: cell-based. The note with it: Erythrocyte, 48 h, P. falciparum 3D7 in human erythrocytes, 2 d, growth inhibition, read-out: IC50: 1 Org. Growth P. falciparum 3D7, 2 d (LPS_00570). The method, then:
In Vitro Activity Against Plasmodium falciparum a) Against 3D7 Strain of Plasmodium falciparum Inhibition of 3D7 strain parasites was assessed using the [^3H]-hypoxanthine incorporation assay (Desjardins, et al. Antimicrob. Agents Chemother. 1979, 16, 710-718). Briefly, parasites were cultured in human erythrocytes (from the Spanish Red Cross blood bank) using RPMI-1640 culture media (Gibco) supplemented with 0.5% Albumax II (Invitrogen), 2% D-sucrose (Sigma-Aldrich), 0.3% glutamine (Sigma-Aldrich), and 5 mM hypoxanthine (Sigma-Aldrich). Cultures were maintained at 37° C. at an atmosphere of 5% O2, 5% CO2, and […]. To assess inhibition, asynchronous parasite cultures with 0.5% parasitemia and 2% hematocrit were exposed to 3-fold serial dilutions of test compounds for 24 hours in 96 well plate cultures (Costar #3894). After 24 hours, [^3H]-hypoxanthine was added, plates were incubated for an additional 24 hours, and parasites were harvested on glass fiber filters (Wallac #1450-421) using a cell harvester 96 (TOMTEC, Perkin Elmer). Filters were dried on scintillator sheets (MeltiLex A, PerkinElmer #1450-441) to determine incorporation of [^3H]-hypoxanthine. Radioactivity was measured using a microbeta counter (Perkin Elmer). Data are normalized using the incorporation of the positive control (infected erythrocytes without drug). IC50 values were determined using Excel and Grafit 5 software. Values were determined from at least three independent experiments, and standard deviations were calculated.

In general, IC50 refers to the point on the concentration scale where inhibition reaches its midpoint. On to `CCC[C@H](NC(=O)c1cnc(Oc2ccc3c(c2C)B(O)OC3)cn1)C(C)(C)O` [Example 44, (S)—N-(2-hydroxy-2-methylhexan-3-yl)-5-(1-hydroxy-7-methyl-1,3-dihydrobenzo[c][1,2]oxaborol-6-yloxy)pyrazine-2-carboxamide], for which the 50% inhibitory concentration (IC50) in assay [1] is 129 nM; in assay [2] it was 217 nM.

For `Cc1c(Oc2cnc(C(=O)N[C@@H](CO)CS(C)(=O)=O)cn2)ccc2c1B(O)OC2` [Example 36, (S)—N-(1-hydroxy-3-(methylsulfonyl)propan-2-yl)-5-(1-hydroxy-7-methyl-1,3-dihydrobenzo[c][1,2]oxaborol-6-yloxy)pyrazine-2-carboxamide], the values for the IC50 in assay [1] and in assay [2] were 201 nM and 472 nM, respectively.

In the case of `Cc1c(Oc2cnc(C(=O)NC(C)(C)CO)cn2)ccc2c1B(O)OC2` [Example 3, N-(1-hydroxy-2-methylpropan-2-yl)-5-(1-hydroxy-7-methyl-1,3-dihydrobenzo[c][1,2]oxaborol-6-yloxy)pyrazine-2-carboxamide], the IC50 in assay [1] is 290 nM; in assay [2], 425 nM.

`Cc1c(Oc2cnc(C(=O)NC(C)CO)cn2)ccc2c1B(O)OC2` (stereo not drawn) [Example 5, 5-(1-hydroxy-7-methyl-1,3-dihydrobenzo[c][1,2]oxaborol-6-yloxy)-N-(1-hydroxypropan-2-yl)pyrazine-2-carboxamide]: the IC50 in assay [1] came out at 92.3 nM; in assay [2], 317 nM.

On to `Cc1c(Oc2cnc(C(=O)N(C)CCO)cn2)ccc2c1B(O)OC2` [Example 10, 5-(1-hydroxy-7-methyl-1,3-dihydrobenzo[c][1,2]oxaborol-6-yloxy)-N-(2-hydroxyethyl)-N-methylpyrazine-2-carboxamide], for which the IC50 in assay [1] is 262 nM; in assay [2], 437 nM.

Take `C=CC(CO)NC(=O)c1cnc(Oc2ccc3c(c2C)B(O)OC3)cn1` (stereo not drawn) [Example 20, 5-(1-hydroxy-7-methyl-1,3-dihydrobenzo[c][1,2]oxaborol-6-yloxy)-N-(1-hydroxybut-3-en-2-yl)pyrazine-2-carboxamide]: the half-inhibitory concentration (IC50) in assay [1] came to 535 nM; in assay [2] it was 786 nM.

For `CCC[C@@H](CO)NC(=O)c1cnc(Oc2ccc3c(c2C)B(O)OC3)cn1` [Example 13, (S)-5-(1-hydroxy-7-methyl-1,3-dihydrobenzo[c][1,2]oxaborol-6-yloxy)-N-(1-hydroxypentan-2-yl)pyrazine-2-carboxamide], the IC50 in assay [1] is 297 nM; in assay [2] it was 715 nM.

For the compound `Cc1c(Oc2cnc(C(=O)N(CCO)CCO)cn2)ccc2c1B(O)OC2` [Example 6, 5-(1-hydroxy-7-methyl-1,3-dihydrobenzo[c][1,2]oxaborol-6-yloxy)-N,N-bis(2-hydroxyethyl)pyrazine-2-carboxamide], the IC50 turned out to be 328 nM in assay [1] and 184 nM in assay [2].

In the case of `CC[C@H](CO)NC(=O)c1cnc(Oc2ccc3c(c2C)B(O)OC3)cn1` [Example 19, (R)-5-(1-hydroxy-7-methyl-1,3-dihydrobenzo[c][1,2]oxaborol-6-yloxy)-N-(1-hydroxybutan-2-yl)pyrazine-2-carboxamide], the IC50 in assay [1] was found to be 136 nM; in assay [2] it was 403 nM.

`CCCC[C@H](CO)NC(=O)c1cnc(Oc2ccc3c(c2C)B(O)OC3)cn1` [Example 28, (R)-5-(1-hydroxy-7-methyl-1,3-dihydrobenzo[c][1,2]oxaborol-6-yloxy)-N-(1-hydroxyhexan-2-yl)pyrazine-2-carboxamide]: the IC50 in assay [1] is 84.9 nM; in assay [2], 215 nM.

In the case of `Cc1c(Oc2cnc(C(=O)N[C@@H](CO)CC(F)(F)F)cn2)ccc2c1B(O)OC2` [Example 33, (R)-5-(1-hydroxy-7-methyl-1,3-dihydrobenzo[c][1,2]oxaborol-6-yloxy)-N-(4,4,4-trifluoro-1-hydroxybutan-2-yl)pyrazine-2-carboxamide], the values for the IC50 in assay [1] and in assay [2] were 82.2 nM and 149 nM, respectively.

Consider `Cc1c(Oc2cnc(C(=O)N[C@H](CO)C3CC3)cn2)ccc2c1B(O)OC2` [Example 31, (S)—N-(1-cyclopropyl-2-hydroxyethyl)-5-(1-hydroxy-7-methyl-1,3-dihydrobenzo[c][1,2]oxaborol-6-yloxy)pyrazine-2-carboxamide], for which the IC50 in assay [1] was found to be 643 nM; in assay [2], 1090 nM.

Consider `Cc1c(Oc2cnc(C(=O)NC(C)C(C)O)cn2)ccc2c1B(O)OC2` (stereo not drawn) [Example 39, 5-(1-hydroxy-7-methyl-1,3-dihydrobenzo[c][1,2]oxaborol-6-yloxy)-N-(3-hydroxybutan-2-yl)pyrazine-2-carboxamide], for which the IC50 was found to be 513 nM in assay [1] and 1460 nM in assay [2].

Turning to `Cc1c(Oc2cnc(C(=O)N3CC(C)(O)C3)cn2)ccc2c1B(O)OC2` [Example 41, (3-hydroxy-3-methylazetidin-1-yl) (5-((1-hydroxy-7-methyl-1,3-dihydrobenzo[c][1,2]oxaborol-6-yl)oxy)pyrazin-2-yl)methanone], the results for the concentration for half-maximal inhibition (IC50) in assay [1] and in assay [2] were 32.6 nM and 70.6 nM, respectively.

Consider `C=C[C@H](CO)NC(=O)c1cnc(Oc2ccc3c(c2C)B(O)OC3)cn1` [Example 30, (R)-5-(1-hydroxy-7-methyl-1,3-dihydrobenzo[c][1,2]oxaborol-6-yloxy)-N-(1-hydroxybut-3-en-2-yl)pyrazine-2-carboxamide], for which the IC50 was found to be 317 nM in assay [1] and 536 nM in assay [2].
